# pKi: −log10 of the molar value.
# Target: Sigma non-opioid intracellular receptor 1 (Cavia porcellus, UniProt Q60492)
# Assay: Displacement of [3H](+)-pentazocine from sigma 1 receptor in guinea pig brain membrane
# Sequence of Sigma non-opioid intracellular receptor 1 (Q60492 whole entry): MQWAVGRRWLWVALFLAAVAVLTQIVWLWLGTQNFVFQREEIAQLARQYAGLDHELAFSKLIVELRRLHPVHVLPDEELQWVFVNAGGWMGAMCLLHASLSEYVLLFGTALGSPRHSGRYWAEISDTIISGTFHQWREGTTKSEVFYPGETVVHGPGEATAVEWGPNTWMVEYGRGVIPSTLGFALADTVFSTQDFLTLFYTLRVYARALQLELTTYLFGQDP
row,pKi,SMILES
1,7.17,"OCC[C@H]1Cc2ccccc2C2(CCN(CCCc3ccccc3)CC2)O1 [(R)-2-(1'-(3-phenylpropyl)spiro[isochroman-1,4'-piperidine]-3-yl)ethanol]"
2,8.05,"OCC[C@H]1Cc2ccccc2C2(CCN(CC3CCCCC3)CC2)O1 [(R)-2-(1'-(cyclohexylmethyl)spiro[isochroman-1,4'-piperidine]-3-yl)ethanol]"
3,7.32,"OCC[C@H]1Cc2ccccc2C2(CCN(Cc3ccccc3)CC2)O1 [(R)-2-(1'-benzylspiro[isochroman-1,4'-piperidine]-3-yl)ethanol]"
4,8.00,"OCC[C@@H]1Cc2ccccc2C2(CCN(Cc3ccccc3)CC2)O1 [(S)-2-(1'-benzylspiro[isochroman-1,4'-piperidine]-3-yl)ethanol]"

# From BindingDB's records for doi:10.1016/j.ejmech.2010.03.048 (2010)
